Four molecules from ChEMBL document CHEMBL1156029, “The discovery of thienopyridine analogues as potent IkappaB kinase beta inhibitors. Part II” (Bioorg Med Chem Lett, 2009) can be followed below.

The target in series [1] is Dual specificity mitogen-activated protein kinase kinase 1 (Homo sapiens) (UniProt Q02750). Briefly: Inhibition of MKK1 at 10 uM.
The target of series [2] is T1, Mitogen-activated protein kinase 13 (Homo sapiens) (UniProt O15264).
T1 sequence (whole entry): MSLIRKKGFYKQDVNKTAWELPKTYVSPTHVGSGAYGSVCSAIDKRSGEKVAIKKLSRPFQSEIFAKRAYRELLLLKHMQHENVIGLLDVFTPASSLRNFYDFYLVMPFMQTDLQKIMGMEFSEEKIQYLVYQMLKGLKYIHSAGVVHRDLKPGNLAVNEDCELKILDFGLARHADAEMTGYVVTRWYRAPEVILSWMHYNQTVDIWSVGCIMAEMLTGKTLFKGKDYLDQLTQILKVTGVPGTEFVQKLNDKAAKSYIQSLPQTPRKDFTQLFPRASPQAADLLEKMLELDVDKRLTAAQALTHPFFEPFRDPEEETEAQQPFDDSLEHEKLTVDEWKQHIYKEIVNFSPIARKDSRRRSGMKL
Briefly: Inhibition of p38delta at 10 uM.

The target in series [3] is Tyrosine-protein kinase Lyn (Homo sapiens, UniProt P07948). Briefly: Inhibition of Lyn.
Sequence of Tyrosine-protein kinase Lyn (P07948 whole entry, the tested form may be a part): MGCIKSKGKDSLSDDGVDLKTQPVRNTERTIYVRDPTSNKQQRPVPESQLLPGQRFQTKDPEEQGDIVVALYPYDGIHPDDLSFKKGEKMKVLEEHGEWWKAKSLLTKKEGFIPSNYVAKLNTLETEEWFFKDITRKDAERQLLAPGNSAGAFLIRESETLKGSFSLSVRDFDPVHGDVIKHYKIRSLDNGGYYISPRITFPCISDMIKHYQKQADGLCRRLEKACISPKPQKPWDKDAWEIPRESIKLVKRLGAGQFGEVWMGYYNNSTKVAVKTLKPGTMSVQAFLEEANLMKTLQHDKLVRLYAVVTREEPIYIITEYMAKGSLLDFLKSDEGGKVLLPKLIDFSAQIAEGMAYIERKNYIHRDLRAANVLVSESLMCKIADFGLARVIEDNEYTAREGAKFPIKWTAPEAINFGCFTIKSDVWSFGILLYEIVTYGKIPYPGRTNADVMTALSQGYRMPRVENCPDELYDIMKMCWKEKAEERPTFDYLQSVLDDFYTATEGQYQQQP
Series [4] in a line: Inhibition of PH domain deficient PKBdelta at 10 uM.
A short description of series [5]: Inhibition of PKA at 10 uM.
Series [6] has as its target Tyrosine-protein kinase CSK (Homo sapiens) (UniProt P41240). Briefly: Inhibition of CSK at 10 uM.
For series [7], the target named is Mitogen-activated protein kinase 14 (Homo sapiens) (UniProt Q16539). Briefly: Inhibition of p38alpha at 10 uM.
Sequence of Mitogen-activated protein kinase 14 (Homo sapiens) (Q16539 whole entry): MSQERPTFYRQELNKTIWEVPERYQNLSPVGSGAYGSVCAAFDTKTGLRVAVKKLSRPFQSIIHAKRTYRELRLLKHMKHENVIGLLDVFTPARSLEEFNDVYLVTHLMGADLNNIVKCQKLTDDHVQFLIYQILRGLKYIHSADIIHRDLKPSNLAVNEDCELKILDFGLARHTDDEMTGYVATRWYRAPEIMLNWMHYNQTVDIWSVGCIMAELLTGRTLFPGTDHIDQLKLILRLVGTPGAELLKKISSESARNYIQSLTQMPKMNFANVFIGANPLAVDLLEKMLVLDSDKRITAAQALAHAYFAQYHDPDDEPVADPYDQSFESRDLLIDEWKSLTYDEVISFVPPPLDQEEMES
Series [8] deals with Ribosomal protein S6 kinase alpha-1 (Homo sapiens) (UniProt Q15418). Put plainly: Inhibition of MAPKAPK-1a at 10 uM.
Sequence of Ribosomal protein S6 kinase alpha-1 (Homo sapiens) (Q15418 whole entry): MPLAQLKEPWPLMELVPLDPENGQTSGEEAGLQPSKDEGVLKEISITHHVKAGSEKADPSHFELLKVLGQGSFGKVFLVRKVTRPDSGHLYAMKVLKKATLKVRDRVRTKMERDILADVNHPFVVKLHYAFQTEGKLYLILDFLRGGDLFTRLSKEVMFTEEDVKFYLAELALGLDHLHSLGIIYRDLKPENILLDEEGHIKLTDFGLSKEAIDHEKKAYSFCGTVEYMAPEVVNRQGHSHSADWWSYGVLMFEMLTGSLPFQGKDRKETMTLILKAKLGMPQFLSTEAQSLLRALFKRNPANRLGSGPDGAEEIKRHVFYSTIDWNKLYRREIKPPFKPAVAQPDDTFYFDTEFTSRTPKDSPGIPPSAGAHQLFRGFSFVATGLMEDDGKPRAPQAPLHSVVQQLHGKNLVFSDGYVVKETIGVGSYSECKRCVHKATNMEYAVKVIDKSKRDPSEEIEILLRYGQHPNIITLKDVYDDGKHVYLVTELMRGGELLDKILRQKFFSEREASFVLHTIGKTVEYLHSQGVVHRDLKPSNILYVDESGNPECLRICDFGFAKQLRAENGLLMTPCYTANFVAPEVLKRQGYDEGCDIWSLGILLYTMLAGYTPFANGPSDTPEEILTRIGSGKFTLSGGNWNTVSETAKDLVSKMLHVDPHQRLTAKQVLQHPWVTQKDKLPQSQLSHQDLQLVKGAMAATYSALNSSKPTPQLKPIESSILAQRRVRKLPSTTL
A further series relates to HeLa. Put plainly: Inhibition of TNF-alpha-induced NF-kappaB transfected in human HeLa cells preincubated for 30 mins before TNFalpha challenge after 6 hrs by luciferase reporter gene assay. It counts as cell-based. On the technique in general: Reporter assays use an easily measured gene product as a stand-in for the process of interest.
For series [9], the target named is Glycogen synthase kinase-3 beta (Homo sapiens) (UniProt P49841). Briefly: Inhibition of GSK3-beta at 10 uM.
Sequence of Glycogen synthase kinase-3 beta (Homo sapiens) (P49841 whole entry, looked up): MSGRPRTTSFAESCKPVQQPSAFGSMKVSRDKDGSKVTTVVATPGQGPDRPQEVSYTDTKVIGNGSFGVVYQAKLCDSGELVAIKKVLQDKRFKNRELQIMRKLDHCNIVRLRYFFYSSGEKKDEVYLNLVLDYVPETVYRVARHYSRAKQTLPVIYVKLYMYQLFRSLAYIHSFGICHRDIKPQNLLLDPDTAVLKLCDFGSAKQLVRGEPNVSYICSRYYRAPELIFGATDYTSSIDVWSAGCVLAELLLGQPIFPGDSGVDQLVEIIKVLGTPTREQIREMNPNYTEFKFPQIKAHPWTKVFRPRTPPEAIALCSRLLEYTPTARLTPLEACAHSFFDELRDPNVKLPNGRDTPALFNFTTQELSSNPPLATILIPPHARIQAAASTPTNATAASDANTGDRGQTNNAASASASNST
The target of another series is Ephrin type-A receptor 2 (Homo sapiens, UniProt P29317). Briefly: Inhibition of Eck.
Series [10] addresses Dual specificity tyrosine-phosphorylation-regulated kinase 1A (Homo sapiens) (UniProt Q13627). Put plainly: Inhibition of DYRK1a at 10 uM.
Series [11] has as its target Protein kinase C alpha type (Homo sapiens) (UniProt P17252). Briefly: Inhibition of PKCalpha at 10 uM.
The target in series [12] is T2, Mitogen-activated protein kinase 12 (Homo sapiens) (UniProt P53778).
T2 sequence (whole entry): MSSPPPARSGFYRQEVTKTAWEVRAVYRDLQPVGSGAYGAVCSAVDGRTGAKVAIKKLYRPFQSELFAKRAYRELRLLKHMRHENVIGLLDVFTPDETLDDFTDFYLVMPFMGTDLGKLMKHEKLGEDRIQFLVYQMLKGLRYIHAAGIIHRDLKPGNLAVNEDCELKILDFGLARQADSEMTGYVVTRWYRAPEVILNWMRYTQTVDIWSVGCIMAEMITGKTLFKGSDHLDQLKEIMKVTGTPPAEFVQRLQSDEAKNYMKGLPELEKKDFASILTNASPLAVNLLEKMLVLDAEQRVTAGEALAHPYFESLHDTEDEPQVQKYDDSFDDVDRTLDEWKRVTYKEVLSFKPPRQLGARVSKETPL
Briefly: Inhibition of p38-gamma at 10 uM.

Series [13] can be described thus: Plasma concentration in mouse at 30 mg/kg, po after 120 mins. It counts as ADME, organism-based. On the set-up: dose 30 mg/kg, route oral.
Series [14] concerns the target Mitogen-activated protein kinase 1 (Homo sapiens) (UniProt P28482). Briefly: Inhibition of MAPK2/ERK2 at 10 uM.
For series [15], the target named is MAP kinase-activated protein kinase 2 (Homo sapiens) (UniProt P49137). Briefly: Inhibition of MAPKAP-K2 at 10 uM.
Sequence of MAP kinase-activated protein kinase 2 (Homo sapiens) (P49137 whole entry, looked up): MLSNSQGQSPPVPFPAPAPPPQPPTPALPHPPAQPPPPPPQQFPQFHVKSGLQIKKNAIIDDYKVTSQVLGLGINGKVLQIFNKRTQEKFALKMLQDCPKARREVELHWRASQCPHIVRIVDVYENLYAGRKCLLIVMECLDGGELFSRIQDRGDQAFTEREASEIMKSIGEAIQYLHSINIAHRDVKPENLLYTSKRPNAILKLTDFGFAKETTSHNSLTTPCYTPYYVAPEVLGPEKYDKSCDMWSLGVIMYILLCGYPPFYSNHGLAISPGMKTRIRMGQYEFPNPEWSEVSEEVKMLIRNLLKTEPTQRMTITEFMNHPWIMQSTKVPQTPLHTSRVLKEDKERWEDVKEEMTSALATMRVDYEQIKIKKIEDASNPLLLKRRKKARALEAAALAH
In series [16] the target is T3, MAP kinase-activated protein kinase 5 (Homo sapiens) (UniProt Q8IW41).
T3 sequence (whole entry): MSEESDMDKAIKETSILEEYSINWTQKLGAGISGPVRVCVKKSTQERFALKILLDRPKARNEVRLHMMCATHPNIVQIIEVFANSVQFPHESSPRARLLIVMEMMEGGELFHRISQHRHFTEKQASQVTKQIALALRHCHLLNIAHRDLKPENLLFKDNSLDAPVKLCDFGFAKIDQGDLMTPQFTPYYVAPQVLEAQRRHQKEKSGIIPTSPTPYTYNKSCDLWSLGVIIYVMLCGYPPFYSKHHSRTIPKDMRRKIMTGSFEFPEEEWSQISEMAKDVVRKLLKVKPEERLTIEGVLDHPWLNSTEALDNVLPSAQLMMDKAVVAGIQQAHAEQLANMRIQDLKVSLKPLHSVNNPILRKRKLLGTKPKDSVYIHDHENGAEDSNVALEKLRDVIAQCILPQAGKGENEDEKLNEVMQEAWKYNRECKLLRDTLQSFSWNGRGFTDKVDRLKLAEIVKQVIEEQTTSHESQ
Briefly: Inhibition of PRAK at 10 uM.

The target in series [17] is Tyrosine-protein kinase BTK (Homo sapiens, UniProt Q06187). Put plainly: Inhibition of Btk.
Sequence of Tyrosine-protein kinase BTK (Q06187 whole entry): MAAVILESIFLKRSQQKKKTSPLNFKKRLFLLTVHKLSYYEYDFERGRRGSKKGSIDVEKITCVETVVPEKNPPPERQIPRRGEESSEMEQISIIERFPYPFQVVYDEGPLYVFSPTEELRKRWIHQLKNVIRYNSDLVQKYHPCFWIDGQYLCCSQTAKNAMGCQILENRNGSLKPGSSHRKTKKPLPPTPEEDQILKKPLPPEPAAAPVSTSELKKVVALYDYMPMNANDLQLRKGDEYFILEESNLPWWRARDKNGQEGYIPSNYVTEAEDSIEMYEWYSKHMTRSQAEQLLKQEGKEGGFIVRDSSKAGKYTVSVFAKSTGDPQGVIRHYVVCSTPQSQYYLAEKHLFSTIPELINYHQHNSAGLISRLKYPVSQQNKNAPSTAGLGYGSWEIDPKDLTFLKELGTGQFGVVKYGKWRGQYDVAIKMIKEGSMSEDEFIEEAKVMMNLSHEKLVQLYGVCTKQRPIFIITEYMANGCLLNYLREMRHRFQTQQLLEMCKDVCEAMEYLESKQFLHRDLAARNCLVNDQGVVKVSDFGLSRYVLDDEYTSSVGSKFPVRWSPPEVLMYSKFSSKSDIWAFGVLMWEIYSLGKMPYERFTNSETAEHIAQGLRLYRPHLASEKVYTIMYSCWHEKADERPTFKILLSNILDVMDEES
The nature of series [18]: Plasma concentration in mouse at 10 mg/kg, po after 120 mins. It counts as ADME, organism-based. Also on record: dose 10 mg/kg, route oral.
The subject of a further series is Mus musculus. Put plainly: Inhibition of LPS-induced TNFalpha production in mouse at 100 mg/kg, po administered 60 mins before LPS challenge. It counts as functional.
Series [19] is described as follows: Inhibition of CK2 at 10 uM.

Molecules are shown by their SMILES. The source made the active and inactive calls. No cut-off for these calls is given here. A value given as a limit tells only on which side of the number the result lay.

For orientation: IC50 means the concentration needed to halve the response being measured. The low end stands for greater potency, the high end for weaker potency. What is called inhibition in vivo is how much of the control response was suppressed. Read a low inhibition in vivo as little suppression.

Sequence of Mitogen-activated protein kinase 1 (Homo sapiens) (P28482 whole entry): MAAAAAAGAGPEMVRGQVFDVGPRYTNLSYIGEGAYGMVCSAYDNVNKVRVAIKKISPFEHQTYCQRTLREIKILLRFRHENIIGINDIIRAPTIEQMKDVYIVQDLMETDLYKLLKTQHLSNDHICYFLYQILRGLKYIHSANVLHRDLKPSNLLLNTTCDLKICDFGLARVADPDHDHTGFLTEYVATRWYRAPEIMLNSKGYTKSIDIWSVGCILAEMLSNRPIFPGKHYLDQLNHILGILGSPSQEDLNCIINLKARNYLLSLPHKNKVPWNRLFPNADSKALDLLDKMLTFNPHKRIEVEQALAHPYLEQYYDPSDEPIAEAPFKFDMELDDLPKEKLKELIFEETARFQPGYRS
Sequence of Tyrosine-protein kinase CSK (Homo sapiens) (P41240 2-450 limits assumed): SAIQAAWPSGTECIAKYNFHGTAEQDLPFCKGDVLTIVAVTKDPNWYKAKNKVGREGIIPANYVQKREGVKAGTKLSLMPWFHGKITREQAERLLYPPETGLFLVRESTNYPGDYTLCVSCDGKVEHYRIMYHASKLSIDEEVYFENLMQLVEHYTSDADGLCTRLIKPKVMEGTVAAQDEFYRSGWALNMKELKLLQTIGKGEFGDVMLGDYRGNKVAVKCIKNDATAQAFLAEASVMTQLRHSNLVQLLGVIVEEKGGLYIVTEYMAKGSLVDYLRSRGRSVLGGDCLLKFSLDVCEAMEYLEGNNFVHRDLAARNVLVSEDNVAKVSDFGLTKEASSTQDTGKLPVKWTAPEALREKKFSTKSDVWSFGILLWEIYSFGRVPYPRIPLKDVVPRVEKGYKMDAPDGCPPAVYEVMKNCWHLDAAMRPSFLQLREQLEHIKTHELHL
Sequence of Dual specificity mitogen-activated protein kinase kinase 1 (Homo sapiens) (Q02750 whole entry): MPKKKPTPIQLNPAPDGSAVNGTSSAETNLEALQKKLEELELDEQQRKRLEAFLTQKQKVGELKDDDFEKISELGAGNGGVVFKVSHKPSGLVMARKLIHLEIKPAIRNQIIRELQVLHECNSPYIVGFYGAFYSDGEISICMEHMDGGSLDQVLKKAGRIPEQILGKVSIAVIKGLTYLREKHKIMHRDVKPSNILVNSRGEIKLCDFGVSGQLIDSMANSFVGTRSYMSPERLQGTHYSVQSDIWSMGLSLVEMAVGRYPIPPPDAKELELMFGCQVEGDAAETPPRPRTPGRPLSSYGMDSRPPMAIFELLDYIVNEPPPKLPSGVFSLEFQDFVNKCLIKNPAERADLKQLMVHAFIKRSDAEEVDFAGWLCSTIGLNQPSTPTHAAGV

On to `CCCc1cc(N2CCCC(O)C2)nc2sc(C(N)=O)c(N)c12` (stereo not drawn), for which the outcome in series [1], in series [2], in [4], in series [5], in series [6] and in series [7] was inactive. Besides, the outcome in series [8], in series [9], in [10], in series [11], in series [12] and in series [14] was inactive. Further, the outcome in series [15], in series [16] and in series [19] was inactive. For the same molecule, the 50% inhibitory concentration (IC50) is more than 7 µM in series [3], 6.1 µM in the series on HeLa, more than 7 µM against Ephrin type-A receptor 2 and more than 7 µM in series [17]. Also, the concentration at 2 h in [13] is 3100 nM; in series [18], 170 nM. The same molecule returned an inhibition in vivo at 100 mg/kg with Mus musculus of 93%.
As for `CCCc1cc(N2CCC(N)CC2)nc2sc(C(N)=O)c(N)c12`, the result in [1], in series [2], in series [4], in series [5], in [6] and in series [7] was inactive. In addition, the outcome in [8], in series [9], in series [10], in [11], in series [12] and in series [14] was inactive. Besides, the outcome in series [15], in [16] and in series [19] was inactive. Besides, the IC50 was more than 7 µM in series [3], 1.5 µM with HeLa, more than 7 µM against Ephrin type-A receptor 2 and more than 7 µM in series [17]. For the same molecule, the results for the concentration at 2 h in [13] and in series [18] were 20 nM and less than 10 nM, respectively. In the series with Mus musculus, this molecule registered an inhibition in vivo at 100 mg/kg of 81%.
With `CCCc1cc(N2CCC(O)CC2)nc2sc(C(N)=O)c(N)c12`, the outcome in series [1], in [2], in series [4], in series [5], in [6] and in series [7] was inactive. The outcome in series [8], in [9], in series [10], in series [11], in [12] and in series [14] was inactive. Moreover, the result in series [15], in [16] and in [19] was inactive. Further, the IC50 in [3] is more than 7 µM; with HeLa it was 5.3 µM; on Ephrin type-A receptor 2 it was more than 7 µM; in [17], more than 7 µM. The concentration at 2 h in series [13] was determined as 15500 nM; in series [18], 1600 nM. The molecule further registered an inhibition in vivo at 100 mg/kg with Mus musculus of 98%.
For `CCCc1cc(N2CCNCC2)nc2sc(C(N)=O)c(N)c12`, the outcome in series [1], in series [2], in series [4], in series [5], in series [6] and in series [7] was inactive. The outcome in [8], in series [9], in series [10], in series [11], in series [12] and in [14] was inactive. Further, the outcome in series [15], in series [16] and in [19] was inactive. Moreover, the IC50 in [3] is more than 7 µM; in the series on HeLa, 7.5 µM; at Ephrin type-A receptor 2, more than 7 µM; in series [17], more than 7 µM. In addition, the concentration at 2 h in series [13] and in series [18] was less than 10 nM each time. In addition, in the series on Mus musculus, the inhibition in vivo at 100 mg/kg stood at 74%.
